Measured values: patent US8003695B2 (Chroma Therapeutics Ltd., priority 2006, dated 2011)
pIC50: −log10 of the molar value.

Legend:
human whole blood = assay: LPS-Stimulation of Human Whole Blood, TNF-α release; assay type: cell-based; conditions: LPS 100 ng/ml, 6 hrs, read-out: Inhibitor activity versus human whole blood TNFα release
Experimental: LPS-Stimulation of Human Whole Blood
Whole blood was taken by venous puncture using heparinised vacutainers (Becton Dickinson) and diluted in an equal volume of RPMI1640 tissue culture media (Sigma). 100 μl was plated in V-bottomed 96 well tissue culture treated plates. 2 hrs after the addition of the inhibitor in 100 μl of RPMI1640 media, the blood was stimulated with LPS (E. coli strain 005:B5, Sigma) at a final concentration of 100 ng/ml and incubated at 37° C. in 5% CO2 for 6 hrs. TNF-α levels were measured from cell-free supernatants by sandwich ELISA (R&D Systems #QTA00B)

IKBKB (IKKβ) = molecular target: T1, IKBKB (IKKβ) (Homo sapiens, UniProt O14920); assay: IKKβ Enzyme Assay (Z'-LYTE, Invitrogen); assay type: biochemical; conditions: ATP at or close to Km; read-out: Inhibitor activity versus IKKβ
T1 construct: purchased Invitrogen (Paisley, UK)
T1 sequence (O14920 1-756): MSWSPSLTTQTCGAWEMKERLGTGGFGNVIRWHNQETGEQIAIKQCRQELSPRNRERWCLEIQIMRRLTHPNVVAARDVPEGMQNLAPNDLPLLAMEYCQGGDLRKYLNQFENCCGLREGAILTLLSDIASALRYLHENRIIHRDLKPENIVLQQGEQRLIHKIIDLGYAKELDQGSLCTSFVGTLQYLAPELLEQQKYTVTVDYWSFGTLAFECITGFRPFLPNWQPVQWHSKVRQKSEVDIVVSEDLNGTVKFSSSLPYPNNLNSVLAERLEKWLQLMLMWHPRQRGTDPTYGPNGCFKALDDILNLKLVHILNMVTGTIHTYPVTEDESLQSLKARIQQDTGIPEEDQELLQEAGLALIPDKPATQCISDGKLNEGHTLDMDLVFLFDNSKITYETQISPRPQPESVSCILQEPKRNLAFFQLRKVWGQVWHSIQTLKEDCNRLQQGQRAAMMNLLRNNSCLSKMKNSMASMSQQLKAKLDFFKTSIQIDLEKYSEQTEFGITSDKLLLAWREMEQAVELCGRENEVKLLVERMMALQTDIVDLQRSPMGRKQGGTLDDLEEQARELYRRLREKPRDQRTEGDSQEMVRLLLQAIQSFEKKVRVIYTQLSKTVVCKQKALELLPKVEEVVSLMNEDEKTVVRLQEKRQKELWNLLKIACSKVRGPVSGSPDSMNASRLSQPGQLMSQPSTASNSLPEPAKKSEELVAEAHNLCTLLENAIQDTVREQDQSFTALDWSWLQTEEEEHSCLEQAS
Experimental: The ability of compounds to inhibit IKKβ kinase activity was measured in an assay performed by Invitrogen (Paisley, UK). The Z′-LYTE™ biochemical assay employs a fluorescence-based, coupled-enzyme format and is based on the differential sensitivity of phosphorylated and non-phosphorylated peptides to proteolytic cleavage. The peptide substrate is labelled with two fluorophores—one at each end—that make up a FRET pair. In the primary reaction, the kinase transfers the gamma-phosphate of ATP to a single serine or threonine residue in a synthetic FRET-peptide. In the secondary reaction, a site-specific protease recognizes and cleaves non-phosphorylated FRET-peptides. Phosphorylation of FRET-peptides suppresses cleavage by the Development Reagent. Cleavage disrupts FRET between the donor (i.e., coumarin) and acceptor (i.e. fluorescein) fluorophores on the FRET-peptide, whereas uncleaved, phosphorylated FRET-peptides maintain FRET. A […] method, which calculates the ratio (the Emission Ratio) of donor emission to acceptor emission after excitation of the donor fluorophore at 400 nm, is used to quantitate reaction progress.
The final 10 μL Kinase Reaction consists of 0.9-8.0 ng IKBKB (IKKβ), 2 μM Ser/Thr 05 Peptide and ATP in 50 mM HEPES pH 7.5, 0.01% BRIJ-35, 10 mM MgCl2, 1 mM EGTA. The assay is performed at an ATP concentration at, or close to the Km. After the 60 minute Kinase Reaction incubation at room temperature, 5 μL of a 1:128 dilution of Development Reagent is added. The assay plate is incubated for a further 60 minutes at room temperature and read on a fluorescence plate reader.
Duplicate data points are generated from a ⅓ log dilution series of a stock solution of test compound in DMSO. Nine dilutions steps are made from a top concentration of 10 μM, and a ‘no compound’ blank is included. Data is collected and analysed using XLfit software from IDBS. The dose response curve is curve fitted to model number 205 (sigmoidal dose-response model). From the curve generated, the concentration giving 50% inhibition is determined and reported.

THP-1 cells = assay: LPS-Stimulation of THP-1 Cells, TNF-α release; assay type: cell-based; conditions: Homo sapiens, LPS 1 μg/ml, 6 hrs, read-out: Inhibitor activity versus THP-1 TNFα release
Experimental: LPS-Stimulation of THP-1 Cells
THP-1 cells were plated in 100 μl at a density of 4×10^4 cells/well in V-bottomed 96 well tissue culture treated plates and incubated at 37° C. in 5% CO2 for 16 hrs. 2 hrs after the addition of the inhibitor in 100 μl of tissue culture media, the cells were stimulated with LPS (E. coli strain 005:85, Sigma) at a final concentration of 1 μg/ml and incubated at 37° C. in 5% CO2 for 6 hrs. TNF-α levels were measured from cell-free supernatants by sandwich ELISA (R&D Systems #QTA00B)

SMILES | pIC50 (human whole blood) | pIC50 (IKBKB (IKKβ)) | pIC50 (THP-1 cells)
CC(C)(C)OC[C@H](NCCc1cccc(-c2cc(C(N)=O)c(NC(N)=O)s2)c1)C(=O)OC1CCCC1 [Example 20, Cyclopentyl O-tert-butyl-N-(2-{3-[4-carbamoyl-5-(carbamoylamino)-2-thienyl]phenyl}ethyl)-L-serinate] | 5.30 to 6.00 |  | 
CC(C)(C)OC[C@H](NC/C=C/c1ccc(-c2cc(C(N)=O)c(NC(N)=O)s2)cc1)C(=O)OC1CCCC1 [Example 43, Cyclopentyl O-tert-butyl-N-[(2E)-3-{4-[4-carbamoyl-5-(carbamoylamino)thiophen-2-yl]phenyl}prop-2-en-1-yl]-L-serinate] | 5.30 to 6.00 | > 6.00 | 
CC(C)C[C@H](NC/C=C/c1ccc(-c2cc(C(N)=O)c(NC(N)=O)s2)cc1F)C(=O)OC1CCCC1 [Example 31, Cyclopentyl N-[(2E)-3-{4-[4-carbamoyl-5-(carbamoylamino)thiophen-2-yl]-2-fluorophenyl}prop-2-en-1-yl]-L-leucinate] | 5.30 to 6.00 | 5.30 to 6.00 | 5.30 to 6.00
NC(=O)Nc1sc(-c2cccc(CN[C@H](C(=O)OC3CCCC3)C3CCCCC3)c2)cc1C(N)=O [Example 10, Cyclopentyl (2S)-({3-[4-carbamoyl-5-(carbamoylamino)-2-thienyl]benzyl}amino)(cyclohexyl)acetate] | 5.30 to 6.00 | 5.30 to 6.00 | > 6.00
CC(C)C[C@H](NC/C=C/c1ccc(-c2cc(C(N)=O)c(NC(N)=O)s2)cc1)C(=O)OC(C)(C)C [Example 42, tert-Butyl N-[(2E)-3-{4-[4-carbamoyl-5-(carbamoylamino)-2-thienyl]phenyl}-prop-2-en-1-yl]-L-leucinate] | < 5.30 | > 6.00 | 5.30 to 6.00
CC(C)C[C@H](NC/C=C/c1ccc(-c2cc(C(N)=O)c(NC(N)=O)s2)cc1)C(=O)OC1CCCC1 [Example 29, Cyclopentyl N-[(2E)-3-{4-[4-carbamoyl-5-(carbamoylamino)-2-thienyl]phenyl}Prop-2-en-1-yl]-L-leucinate] | > 6.00 | > 6.00 | > 6.00
CC(C)C[C@H](NCc1ccc(-c2cc(C(N)=O)c(NC(N)=O)s2)cc1)C(=O)OC1CCCC1 [Example 2, Cyclopentyl N-{4-[4-carbamoyl-5-(carbamoylamino)-2-thienyl]benzyl}-L-leucinate] | 5.30 to 6.00 | > 6.00 | < 5.30
C[C@@H](OC(C)(C)C)[C@H](NCCc1cccc(-c2cc(C(N)=O)c(NC(N)=O)s2)c1)C(=O)OC1CCCC1 [Example 21, Cyclopentyl O-tert-butyl-N-(2-{3-[4-carbamoyl-5-(carbamoylamino)-2-thienyl]phenyl}ethyl)-L-threoninate] | < 5.30 |  | 
CC(C)C[C@H](NC/C=C/c1ccc(-c2cc(C(N)=O)c(NC(N)=O)s2)c(C(F)(F)F)c1)C(=O)OC1CCCC1 [Example 39, Cyclopentyl N-[(2E)-3-{4-[4-carbamoyl-5-(carbamoylamino)thiophen-2-yl]-3-(trifluoromethyl)phenyl}prop-2-en-1-yl]-L-leucinate] | 5.30 to 6.00 | < 5.30 | 
CC(C)C[C@H](NC/C=C/c1c(F)cc(-c2cc(C(N)=O)c(NC(N)=O)s2)cc1F)C(=O)OC1CCCC1 [Example 38, Cyclopentyl N-[(2E)-3-{4-[4-carbamoyl-5-(carbamoylamino)thiophen-2-yl]-2,6-difluorophenyl}prop-2-en-1-yl]-L-leucinate] | 5.30 to 6.00 | < 5.30 | 
C[C@@H](O)[C@H](NC/C=C/c1ccc(-c2cc(C(N)=O)c(NC(N)=O)s2)cc1)C(=O)OC1CCCC1 [Example 48, Cyclopentyl N-[(2E)-3-{4-[4-carbamoyl-5-(carbamoylamino)thiophen-2-yl]phenyl}prop-2-en-1-yl]-L-threoninate] | 5.30 to 6.00 |  | 
C[C@@H](OC(C)(C)C)[C@H](NC/C=C/c1ccc(-c2cc(C(N)=O)c(NC(N)=O)s2)cc1)C(=O)OC1CCCC1 [Example 47, Cyclopentyl O-tert-butyl-N-[(2E)-3-{4-[4-carbamoyl-5-(carbamoylamino)thiophen-2-yl]phenyl}prop-2-en-1-yl]-L-threoninate] | < 5.30 |  | 
NC(=O)Nc1sc(-c2cccc(CN[C@@H](CO)C(=O)OC3CCCC3)c2)cc1C(N)=O [Example 12, Cyclopentyl N-{3-[4-carbamoyl-5-(carbamoylamino)thiophen-2-yl]benzyl}-L-serinate] | > 6.00 | > 6.00 | 
CC(C)C[C@H](NCCc1cc(-c2cc(C(N)=O)c(NC(N)=O)s2)ccc1Cl)C(=O)OC1CCCC1 [Example 24, Cyclopentyl N-(2-{5-[4-carbamoyl-5-(carbamoylamino)thiophen-2-yl]-2-chlorophenyl}ethyl)-L-leucinate] | < 5.30 |  | 
Cc1ccc(-c2cc(C(N)=O)c(NC(N)=O)s2)cc1CCN[C@@H](CC(C)C)C(=O)OC1CCCC1 [Example 23, Cyclopentyl N-(2-{5-[4-carbamoyl-5-(carbamoylamino)thiophen-2-yl]-2-methylphenyl}ethyl)-L-leucinate] | < 5.30 |  | 
NC(=O)Nc1sc(-c2ccc(/C=C/CN[C@H](C(=O)OC3CCCC3)C3CCCCC3)cc2)cc1C(N)=O [Example 44, Cyclopentyl (2S)-{[(2E)-3-{4-[4-carbamoyl-5-(carbamoylamino)thiophen-2-yl]phenyl}prop-2-en-1-yl]amino}(cyclohexyl)ethanoate] | < 5.30 | > 6.00 | 
CC(C)C[C@H](NC/C=C/c1ccc(-c2cc(C(N)=O)c(NC(N)=O)s2)c(Cl)c1)C(=O)OC1CCCC1 [Example 35, Cyclopentyl N-[(2E)-3-{4-[4-carbamoyl-5-(carbamoylamino)thiophen-2-yl]-3-chlorophenyl}prop-2-en-1-yl]-L-leucinate] |  | 5.30 to 6.00 | 5.30 to 6.00
CC(C)[C@H](NCc1cccc(-c2cc(C(N)=O)c(NC(N)=O)s2)c1)C(=O)OC1CCCC1 [Example 15, Cyclopentyl N-{3-[4-carbamoyl-5-(carbamoylamino)thiophen-2-yl]benzyl}-L-valinate] | 5.30 to 6.00 |  | 
CC(C)C[C@@H](NC/C=C/c1ccc(-c2cc(C(N)=O)c(NC(N)=O)s2)cc1)C(=O)OC1CCCC1 [Example 46, Cyclopentyl N-[(2E)-3-{4-[4-carbamoyl-5-(carbamoylamino)-2-thienyl]phenyl}prop-2-en-1-yl]-D-leucinate] | 5.30 to 6.00 | > 6.00 | 
CC(C)(C)OC(=O)[C@@H](NC/C=C/c1ccc(-c2cc(C(N)=O)c(NC(N)=O)s2)cc1)C1CCCCC1 [Example 45, tert-butyl (2S)-{[(2E)-3-{4-[4-carbamoyl-5-(carbamoylamino)thiophen-2-yl]phenyl}prop-2-en-1-yl]amino}(cyclohexyl)ethanoate] | < 5.30 | > 6.00 | 
